Laboratory results as given in publication PMC10143822, “Structural Adaptation of the Single-Stranded DNA-Binding Protein C-Terminal to DNA Metabolizing Partners Guides Inhibitor Design” (Pharmaceutics, 2023).
Primed or numbered codes have the meaning given here. Where no end group is shown, it is not given here. [ ]: non-standard residue; d: D form. 5,6‑carboxyfluorescein = 5,6-carboxyfluorescein; Phe(4-CF3) = N[C@@H](Cc1ccc(C(F)(F)F)cc1)C(=O)O; Phe(3-Cl) = N[C@@H](Cc1cccc(Cl)c1)C(=O)O; Phe(4-Cl) = N[C@@H](Cc1ccc(Cl)cc1)C(=O)O; NMeD = CN[C@@H](CC(=O)O)C(=O)O; Pip′ = not defined here

How the values were obtained:
ExoI = target: T1, ExoI (Escherichia coli, UniProt P04995); experiment: biochemical; type: binding, E. coli
T1 construct: His-tag (cleaved yes); host or cells: E. coli BL21 (DE3) pLysS
Experimental: (§1) Triplicate measurements were performed using a Clariostar Plus Microplate Reader in 384-well plates for all fluorescence anisotropy (FA) experiments. The settings were 25 °C, excitation at 485 nm, emission at 510 nm, settling time of 0.2 s, and 200 flashes per well.
(§2) Competition fluorescence anisotropy experiments were carried out as follows: protein (0.5 μM either ExoI or RecO) was incubated with 50 nM F-wtSSB peptide and 0–500 μM unlabeled wtSSB (or a variant) peptide for 30 min at room temperature. For direct fluorescence anisotropy measurements, 16 µM ExoI and 7.5 µM RecO were used in the first well. After serial dilution, either 50 nM of F-mSSB or F-sSSB was added to the wells and then incubated for 30 min. Buffers used included 20 mM Tris-HCl (pH 8.0), 100 mM NaCl, 1 mM MgCl2, 1 mM 2-mercaptoethanol, 10% (v/v) glycerol, for ExoI and 20 mM Tris-HCl (pH 8.0), 200 mM NaCl, 1 mM 2-mercaptoethanol, 10% (v/v) glycerol, and 0.01% Triton-X 100 for RecO [37].
(§3) Fluorescence anisotropy values were normalized and are shown as bound fractions (BF, %). BF=r−rmin/λ(rmax−r)+r−rmin, I=2∗PG+S, r=S−PG/I, where r: anisotropy, I: total intensity, P: perpendicular intensity, S: parallel intensity, G: an instrument factor set to 1, BF: ligand fraction bound, and λ=λbound/λunbound=1 .
(§4) Competitive fluorescence anisotropy was analyzed in Origin Pro 9.5, and IC50 values were determined using the Logistic Nonlinear fit function and are shown as plots for each mutated position for each protein in Figures S4 and S6. EC50 values from direct fluorescence anisotropy titrations were plotted in Origin 9.5. Values were determined using the Logistics Nonlinear fit function.

RecO = target: T2, RecO (Escherichia coli, UniProt P0A7H3); experiment: biochemical; type: binding; details: 0.5 μM RecO, 50 nM F-wtSSB tracer, 0–500 μM unlabeled peptide, 30 min room temperature; 20 mM Tris-HCl pH 8.0, 200 mM NaCl, 10% glycerol, 0.01% Triton-X 100; 25 °C; triplicate; read-out: IC50 on RecO, competitive fluorescence anisotropy
T2 construct: His-tag (TEV site) (N, cleaved yes); made in house; host or cells: E. coli Rosetta cells
Experimental: as §1, §2, §3, §4

Escherichia coli RecO = target: T3, Escherichia coli RecO (Escherichia coli, UniProt P0A7H3 1-242); experiment: ITC; peptide in the syringe titrated into RecO in the cell; 50 mM HEPES pH 7.5, 50 mM NaCl, 25% glycerol, 1 mM TCEP; model A + B = C, stoichiometry fixed to 1:1, incompetent fraction fitted; details: both partners purified
T3 construct: RecO of Escherichia coli, synthetic gene in pET28a+ with a TEV site at the 5' end; The His tag was cut off with TEV protease only for the purified protein; source: E. coli Rosetta, purified (Ni-NTA, heparin); also in cell lysate (pull-down); not shown: His tag, N-terminal, cleaved
T3 sequence: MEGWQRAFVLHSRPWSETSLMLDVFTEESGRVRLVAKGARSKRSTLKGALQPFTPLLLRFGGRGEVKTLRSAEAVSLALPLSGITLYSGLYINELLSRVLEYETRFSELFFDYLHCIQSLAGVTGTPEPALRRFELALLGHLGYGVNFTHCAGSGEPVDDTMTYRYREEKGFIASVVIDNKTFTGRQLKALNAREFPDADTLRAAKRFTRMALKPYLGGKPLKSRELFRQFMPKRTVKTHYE

E. coli Exonuclease I [1] = target: T4, E. coli Exonuclease I (E. coli, UniProt P04995 1-471); experiment: fluorescence polarisation; direct fluorescence anisotropy: ExoI serially diluted from 16 µM, 50 nM fluorescein-labelled peptide, 30 min, 25 °C; 20 mM Tris-HCl pH 8.0, 100 mM NaCl, 1 mM MgCl2, 1 mM 2-mercaptoethanol, 10% glycerol; details: both partners purified
T4 construct: Exonuclease I of E. coli, from plasmid pET14b-E. coli Exonuclease I (Addgene 104552); The His tag was cut off with thrombin only for the purified protein; also called ExoI; Exol; source: E. coli BL21 (DE3) pLysS, purified (Ni-NTA, heparin); also in cell lysate (pull-down)
T4 sequence: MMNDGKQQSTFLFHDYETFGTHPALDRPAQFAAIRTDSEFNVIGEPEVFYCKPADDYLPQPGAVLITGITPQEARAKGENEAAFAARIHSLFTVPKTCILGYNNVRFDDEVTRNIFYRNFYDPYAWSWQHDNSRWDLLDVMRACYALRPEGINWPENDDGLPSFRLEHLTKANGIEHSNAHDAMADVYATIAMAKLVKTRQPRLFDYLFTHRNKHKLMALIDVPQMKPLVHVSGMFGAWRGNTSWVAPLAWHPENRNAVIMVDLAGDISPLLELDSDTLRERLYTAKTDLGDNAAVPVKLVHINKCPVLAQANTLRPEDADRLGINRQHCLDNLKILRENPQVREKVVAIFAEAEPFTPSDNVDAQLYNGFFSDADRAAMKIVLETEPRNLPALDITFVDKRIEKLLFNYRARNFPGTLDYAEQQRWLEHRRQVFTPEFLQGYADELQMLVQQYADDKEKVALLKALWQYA

E. coli Exonuclease I [2] = target: T4, E. coli Exonuclease I; experiment: ITC; peptide in the syringe titrated into ExoI in the cell; 20 mM Tris–HCl pH 8.0, 100 mM NaCl, 1 mM MgCl2, 4% glycerol, 1 mM β-mercaptoethanol; model A + B = C, stoichiometry fixed to 1:1, incompetent fraction fitted; details: both partners purified

T1 sequence (P04995 whole entry): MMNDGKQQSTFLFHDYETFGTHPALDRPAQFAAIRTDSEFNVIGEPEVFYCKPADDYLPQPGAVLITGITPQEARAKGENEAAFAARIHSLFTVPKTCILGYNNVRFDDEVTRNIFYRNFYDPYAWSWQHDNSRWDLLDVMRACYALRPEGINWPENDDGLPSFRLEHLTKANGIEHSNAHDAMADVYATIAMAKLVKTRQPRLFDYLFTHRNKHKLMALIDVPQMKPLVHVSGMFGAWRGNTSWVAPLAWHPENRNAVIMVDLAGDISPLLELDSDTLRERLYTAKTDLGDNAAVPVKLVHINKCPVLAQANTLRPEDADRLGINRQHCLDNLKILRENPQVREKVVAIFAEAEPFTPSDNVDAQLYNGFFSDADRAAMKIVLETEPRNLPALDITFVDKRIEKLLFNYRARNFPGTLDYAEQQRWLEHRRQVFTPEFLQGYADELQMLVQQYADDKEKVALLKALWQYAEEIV

Ac-DFDEDIPF [Glu4]
IC50 (ExoI): 3.58 ± 0.11 µM | IC50 (RecO): 5.68 ± 0.59 µM

Ac-DFDNDIPF [Asn4]
IC50 (ExoI): 6.02 ± 0.3 µM | IC50 (RecO): 15.7 ± 3.54 µM

Ac-DFEDDIPF [Glu3]
IC50 (ExoI): 4.03 ± 0.24 µM | IC50 (RecO): 5.81 ± 1.65 µM

Ac-DFNDDIPF [Asn3]
IC50 (ExoI): 6.36 ± 0.36 µM | IC50 (RecO): 14.2 ± 1.8 µM

Ac-EFDDDIPF [Glu1]
IC50 (ExoI): 1.33 ± 0.09 µM | IC50 (RecO): 5.17 ± 1.1 µM

Ac-NFDDDIPF [Asn1]
IC50 (ExoI): 9.31 ± 0.4 µM | IC50 (RecO): 13.8 ± 17.2 µM

B1: R1-sSSB-Ct (Asp–4Cl-Phe–NM-Asp–Asp–Glu–Leu–Pro–3Cl-Phe) (peptide)
peptide: Ac-D[Phe(4-Cl)][NMeD]DELP[Phe(3-Cl)]
notes: SSB-Ct of E. coli SSB (residues 171-178) with combined modifications, printed in three-letter code; F2 stands for 4Cl-Phe, D3 for NM-Asp, F8 for 3Cl-Phe; numbers count on: the octapeptide (position 1 = SSB residue 171); source: synthetic peptide
Kd (Escherichia coli RecO): 0.13 µM | dH (Escherichia coli RecO): -6.79 kcal/mol | stoichiometry N (Escherichia coli RecO): 0.935

B2: F-Leu6 (fluorescein-labelled single mutant) (peptide)
peptide: {5,6‑carboxyfluorescein}-GGDFDDDLPF
notes: two glycines between the 5,6-carboxyfluorescein and the peptide; E. coli SSB-Ct, residues 171-178; numbers count on: the octapeptide (position 1 = SSB residue 171); One of Compounds 54-62 of the Supplementary Material; also called F-mSSB Leu6; source: synthetic peptide
EC50 (E. coli Exonuclease I [1]): 0.2 ± 0.03 µM

B3: E2-sSSB-Ct (Asp–4-CF3-Phe–Asp–Asp–Asp–Ile–Pro–4-CF3-Phe) (peptide)
peptide: Ac-D[Phe(4-CF3)]DDDIP[Phe(4-CF3)]
notes: SSB-Ct of E. coli SSB (residues 171-178), printed in three-letter code; F2 and F8 stand for 4-CF3-Phe; numbers count on: the octapeptide (position 1 = SSB residue 171); also called E2.SSB-Ct; source: synthetic peptide
dH (E. coli Exonuclease I [2]): -13.4 kcal/mol | stoichiometry N (E. coli Exonuclease I [2]): 0.885

B4: F-4CF3-Phe8 (fluorescein-labelled single mutant) (peptide)
peptide: {5,6‑carboxyfluorescein}-GGDFDDDIP[Phe(4-CF3)]
notes: two glycines between the 5,6-carboxyfluorescein and the peptide; E. coli SSB-Ct, residues 171-178; F at position 8 stands for 4-CF3-Phe; numbers count on: the octapeptide (position 1 = SSB residue 171); One of Compounds 54-62 of the Supplementary Material; also called F-mSSB 4CF3-Phe8; source: synthetic peptide
EC50 (E. coli Exonuclease I [1]): 0.09 ± 0.01 µM

{5,6‑carboxyfluorescein}-DFDDDI[Pip′]F (not fully specified) [F-Pip7 (fluorescein-labelled single mutant)]
EC50 (E. coli Exonuclease I [1]): 0.09 ± 0.01 µM

B5: F-4CF3-Phe2 (fluorescein-labelled single mutant) (peptide)
peptide: {5,6‑carboxyfluorescein}-GGD[Phe(4-CF3)]DDDIPF
notes: two glycines between the 5,6-carboxyfluorescein and the peptide; E. coli SSB-Ct, residues 171-178; F at position 2 stands for 4-CF3-Phe; numbers count on: the octapeptide (position 1 = SSB residue 171); One of Compounds 54-62 of the Supplementary Material; also called F-mSSB 4CF3-Phe2; source: synthetic peptide
EC50 (E. coli Exonuclease I [1]): 0.04 ± 0.002 µM

B6: F-4Cl-Phe2 (fluorescein-labelled single mutant) (peptide)
peptide: {5,6‑carboxyfluorescein}-GGD[Phe(4-Cl)]DDDIPF
notes: two glycines between the 5,6-carboxyfluorescein and the peptide; E. coli SSB-Ct, residues 171-178; F at position 2 stands for 4-Cl-Phe; numbers count on: the octapeptide (position 1 = SSB residue 171); One of Compounds 54-62 of the Supplementary Material; also called F-mSSB 4Cl-Phe2; source: synthetic peptide
EC50 (E. coli Exonuclease I [1]): 0.15 ± 0.02 µM
